The record followed here is patent publication US8476265B2, “Compounds-801” (AstraZeneca AB, priority 2010, dated 2013).

The IC50 is the concentration at which inhibition is half-maximal. Low readings indicate greater potency, high ones weaker potency.

In experiment [1] the target is T1, Adrenergic β2 (Homo sapiens, UniProt P07550).
T1 construct: Adherent H292 cells are removed from tissue culture flasks by treatment with Accutase™ cell detachment solution; endogenous in cells; host or cells: H292 cells
The experiment in a line: Adrenergic β2 mediated cAMP production in H292 cells (AlphaScreen), concentration response. The class given is cell-based. The following applies: for EC50: 60 min, 300 μM rolipram, read-out: β2 pEC50 (converted); for β2 Intrinsic Activity: fraction relative to the maximum activity determined for formoterol. On the procedure: Assay for Adrenergic 132 Mediated cAMP Production
H292 cells are grown in 225 cm2 flasks incubator at 37° C., 5% CO2 in RPMI medium containing 10% (v/v) FBS (foetal bovine serum) and 2 mM L-glutamine.
Adherent H292 cells re removed from tissue culture flasks by treatment with Accutase™ cell detachment solution for 15 minutes. Flasks are incubated for 15 minutes in a humidified incubator at 37° C., 5% CO2. Detached cells are re-suspended in RPMI media (containing 10% (v/v) FBS and 2 mM L-glutamine) at 0.1×10^6 cells per mL. 10000 cells in 100 μl, are added to each well of a tissue-culture-treated 96-well plate and the cells incubated overnight in a humidified incubator at 37° C., 5% CO2. The culture media is removed and cells are washed twice with 100 μL assay buffer and replaced with 50 μl assay buffer (HBSS solution containing 10 mM HEPES pH7.4 and 5 mM glucose). Cells are rested at room temperature for 20 minutes after which time 25 μl of rolipram (1.2 mM made up in assay buffer containing 2.4% (v/v) dimethylsulphoxide) is added. Cells are incubated with rolipram for 10 minutes after which time test compounds are added and the cells are incubated for 60 minutes at room temperature. The final rolipram concentration in the assay is 300 μM and final vehicle concentration is 1% (v/v) dimethylsulphoxide. The reaction is stopped by removing supernatants, washing once with 100 μL assay buffer and replacing with 50 μL lysis buffer. The cell monolayer is frozen at −80° C. for 30 minutes (or overnight).
AlphaScreen™ cAMP detection
The concentration of cAMP (cyclic adenosine monophosphate) in the cell lysate is determined using AlphaScreen™ methodology. The frozen cell plate is thawed for 20 minutes on a plate shaker then 10 μL of the cell lysate is transferred to a 96-well white plate. 40 μL of mixed AlphaScreen™ detection beads pre-incubated with biotinylated cAMP, is added to each well and the plate incubated at room temperature for 3 hours in the dark. The AlphaScreen™ signal is measured using an EnVision spectrophotometer (Perkin-Elmer Inc.) with the recommended manufacturer's settings. cAMP concentrations are determined by reference to a calibration curve determined in the same experiment using standard cAMP concentrations. Concentration response curves for agonists are constructed and data is fitted to a four parameter logistic equation to determine both the pEC50 and Intrinsic Activity. Intrinsic Activity is expressed as a fraction relative to the maximum activity determined for formoterol in each experiment.
For orientation: Changes in cAMP serve as a functional read-out for many G protein-coupled receptors.

For experiment [2], the target named is T2, human muscarinic acetylcholine M3 receptor (Homo sapiens, UniProt P20309).
T2 construct: expressed in transfected cells; host or cells: CHO-K1 (Chinese Hamster Ovary) cell membranes
The experiment in a line: Muscarinic 3 receptor binding assay ([3H]NMS competition, SPA), pIC50. The following applies: [3H]NMS 0.1 nM, CHO-K1 cell membranes expressing human M3 receptor. The method, then: Muscarinic 3 Receptor Binding Assay
The affinity (pIC50) of compounds binding to the M3 receptor is determined by competition binding of [^3H]N-methyl scopolamine (NMS) to CHO-K1 (Chinese Hamster Ovary) cell membranes expressing the human muscarinic acetylcholine M3 receptor (M3-ACh) in a scintillation proximity assay (SPA) format.
SPA beads are precoated with membranes and then incubated at 2 mg of beads per well with serial dilutions of compounds of the invention, [^3H]NMS at 0.1 nM, quarter Kd (experimentally determined dissociation constant) and assay buffer (20 mM HEPES pH 7.4 containing 5 mM MgCl2 and 0.1% (w/v) bovine serum albumin). The assay is conducted in a final volume of 200 μL, in the presence of 1% (v/v) dimethyl sulphoxide (DMSO). Total binding of [^3H]NMS is determined in the absence of competing compound and non-specific binding of [^3H]NMS is determined in the presence of 1 μM atropine. The plates are incubated for 16 hours at room temperature and then read on Wallac Microbeta™ using a normalised ^3H protocol. The pIC50, defined as the negative logarithm of the molar concentration of compound required for 50% reduction in specific [^3H]-NMS binding, is determined.

T2 sequence (P20309 whole entry): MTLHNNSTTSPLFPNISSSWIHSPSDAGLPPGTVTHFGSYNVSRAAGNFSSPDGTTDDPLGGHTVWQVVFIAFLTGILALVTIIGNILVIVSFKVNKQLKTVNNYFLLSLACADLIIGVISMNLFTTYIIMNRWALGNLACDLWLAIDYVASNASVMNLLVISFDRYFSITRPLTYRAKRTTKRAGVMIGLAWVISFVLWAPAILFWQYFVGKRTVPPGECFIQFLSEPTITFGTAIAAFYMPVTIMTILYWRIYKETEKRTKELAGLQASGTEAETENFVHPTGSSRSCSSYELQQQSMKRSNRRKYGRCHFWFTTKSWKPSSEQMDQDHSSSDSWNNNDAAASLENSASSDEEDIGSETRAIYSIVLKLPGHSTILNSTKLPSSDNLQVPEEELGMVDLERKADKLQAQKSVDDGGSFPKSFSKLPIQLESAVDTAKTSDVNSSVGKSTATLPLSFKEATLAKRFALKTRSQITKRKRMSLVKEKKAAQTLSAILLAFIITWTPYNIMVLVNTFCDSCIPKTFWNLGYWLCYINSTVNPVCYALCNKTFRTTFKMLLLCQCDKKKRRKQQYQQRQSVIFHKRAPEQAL
T1 sequence (P07550 whole entry): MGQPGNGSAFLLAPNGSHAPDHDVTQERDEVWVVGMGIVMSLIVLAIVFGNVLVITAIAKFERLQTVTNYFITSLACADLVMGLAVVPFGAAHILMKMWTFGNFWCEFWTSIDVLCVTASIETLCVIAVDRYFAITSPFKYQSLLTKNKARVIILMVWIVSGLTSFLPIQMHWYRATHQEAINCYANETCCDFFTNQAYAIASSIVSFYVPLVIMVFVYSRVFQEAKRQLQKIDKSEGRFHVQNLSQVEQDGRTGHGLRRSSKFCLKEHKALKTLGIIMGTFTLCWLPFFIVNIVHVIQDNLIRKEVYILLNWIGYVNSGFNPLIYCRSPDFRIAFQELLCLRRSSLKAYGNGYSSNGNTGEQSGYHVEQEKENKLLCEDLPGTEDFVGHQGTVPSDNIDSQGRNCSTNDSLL

Turning to `CC(C)c1nc(C(=O)N2CCOC3(CCN(Cc4cccc(CCOCCC(=O)N(CCNCCc5ccc(O)c6c5OCC(=O)N6)[C@H](C)C(C)C)c4F)CC3)C2)cs1` [Example 12, R)-3-(2-Fluoro-3-((4-(2-isopropylthiazole-4-carbonyl)-1-oxa-4,9-diazaspiro[5.5]undecan-9-yl)methyl)phenethoxy)-N-(2-(2-(5-hydroxy-3-oxo-3,4-dihydro-2H-benzo[b][1,4]oxazin-8-yl)ethylamino)ethyl)-N-(3-methylbutan-2-yl)propanamide ditrifluoroacetate], in experiment [1], the EC50 was 39.8 nM and the “β2 Intrinsic Activity” value was determined as 1.0. The same compound had an IC50 in experiment [2] of 0.501 nM.
On to `CC(C)c1nc(C(=O)N2CCOC3(CCN(Cc4cccc(CCOCCC(=O)N(C)CCNCCc5ccc(O)c6[nH]c(=O)sc56)c4F)CC3)C2)cs1` [Example 13, 3-(2-Fluoro-3-((4-(2-isopropylthiazole-4-carbonyl)-1-oxa-4,9-diazaspiro[5.5]undecan-9-yl)methyl)phenethoxy)-N-(2-(2-(4-hydroxy-2-oxo-2,3-dihydrobenzo[d]thiazol-7-yl)ethylamino)ethyl)-N-methylpropanamide ditrifluoroacetate], for which, in experiment [1], the EC50 is 25.1 nM and the “β2 Intrinsic Activity” value is recorded as 0.8. In experiment [2], this compound gave an IC50 of 0.631 nM.
The corresponding values for `CC(C)c1nc(C(=O)N2CCOC3(CCN(Cc4cccc(CCOCCC(=O)N(CCNCCc5ccc(O)c6c5OCC(=O)N6)[C@H](C)c5ccccc5)c4F)CC3)C2)cs1` [Example 14, (R)-3-(2-Fluoro-3-((4-(2-isopropylthiazole-4-carbonyl)-1-oxa-4,9-diazaspiro[5.5]undecan-9-yl)methyl)phenethoxy)-N-(2-(2-(5-hydroxy-3-oxo-3,4-dihydro-2H-benzo[b][1,4]oxazin-8-yl)ethylamino)ethyl)-N-(1-phenylethyl)propanamide ditrifluoroacetate] are 50.1 nM, 1.0 and 0.398 nM.
As for `CCN(CCNCCc1ccc(O)c2c1OCC(=O)N2)C(=O)CCOCCc1cccc(CN2CCC3(CC2)CN(C(=O)c2csc(C(C)C)n2)CCO3)c1F` [Example 15, N-Ethyl-3-(2-fluoro-3-((4-(2-isopropylthiazole-4-carbonyl)-1-oxa-4,9-diazaspiro[5.5]undecan-9-yl)methyl)phenethoxy)-N-(2-(2-(5-hydroxy-3-oxo-3,4-dihydro-2H-benzo[b][1,4]oxazin-8-yl)ethylamino)ethyl)propanamide ditrifluoroacetate], in experiment [1], the EC50 is 31.6 nM and the “β2 Intrinsic Activity” value was found to be 0.7. Also, the IC50 in experiment [2] is 0.398 nM.
For `CC(C)c1nc(C(=O)N2CCOC3(CCN(Cc4cccc(CCOCCC(=O)N(CCNCCc5ccc(O)c6c5OCC(=O)N6)C(C)C)c4F)CC3)C2)cs1` [Example 16, 3-(2-Fluoro-3-((4-(2-isopropylthiazole-4-carbonyl)-1-oxa-4,9-diazaspiro[5.5]undecan-9-yl)methyl)phenethoxy)-N-(2-(2-(5-hydroxy-3-oxo-3,4-dihydro-2H-benzo[b][1,4]oxazin-8-yl)ethylamino)ethyl)-N-isopropylpropanamide ditrifluoroacetate], in experiment [1], the EC50 was 200 nM and the “β2 Intrinsic Activity” value is given as 0.8. In experiment [2], this compound gave a half-inhibitory concentration (IC50) of 0.251 nM.
Take `CC(C)c1nc(C(=O)N2CCOC3(CCN(Cc4cccc(CCOCCC(=O)N(CCNCCc5ccc(O)c6c5OCC(=O)N6)CCC(C)(C)C)c4F)CC3)C2)cs1` [Example 17, N-(3,3-Dimethylbutyl)-3-(2-fluoro-3-((4-(2-isopropylthiazole-4-carbonyl)-1-oxa-4,9-diazaspiro[5.5]undecan-9-yl)methyl)phenethoxy)-N-(2-(2-(5-hydroxy-3-oxo-3,4-dihydro-2H-benzo[b][1,4]oxazin-8-yl)ethylamino)ethyl)propanamide ditrifluoroacetate]: in experiment [1], the EC50 was 50.1 nM and the “β2 Intrinsic Activity” value came to 1.0. In experiment [2], this compound had an IC50 of 0.316 nM.
For `CCCC[C@@H](C)N(CCNCCc1ccc(O)c2c1OCC(=O)N2)C(=O)CCOCCc1cccc(CN2CCC3(CC2)CN(C(=O)c2csc(C(C)C)n2)CCO3)c1F` [Example 18, (R)-3-(2-Fluoro-3-((4-(2-isopropylthiazole-4-carbonyl)-1-oxa-4,9-diazaspiro[5.5]undecan-9-yl)methyl)phenethoxy)-N-(hexan-2-yl)-N-(2-(2-(5-hydroxy-3-oxo-3,4-dihydro-2H-benzo[b][1,4]oxazin-8-yl)ethylamino)ethyl)propanamide ditrifluoroacetate] the same measures were 20 nM, 1.0 and 0.398 nM.
For the compound `CC(C)c1nc(C(=O)N2CCOC3(CCN(Cc4cccc(CCOCCC(=O)N(CCNCCc5ccc(O)c6c5OCC(=O)N6)[C@H](C)C(C)(C)C)c4F)CC3)C2)cs1` [Example 19, (R)—N-(3,3-Dimethylbutan-2-yl)-3-(2-fluoro-3-((4-(2-isopropylthiazole-4-carbonyl)-1-oxa-4,9-diazaspiro[5.5]undecan-9-yl)methyl)phenethoxy)-N-(2-(2-(5-hydroxy-3-oxo-3,4-dihydro-2H-benzo[b][1,4]oxazin-8-yl)ethylamino)ethyl)propanamide ditrifluoroacetate], in experiment [1], the EC50 is 50.1 nM and the “β2 Intrinsic Activity” value is 0.9. The IC50 in experiment [2] was 0.631 nM.
Consider `CC(C)c1nc(C(=O)N2CCOC3(CCN(Cc4cccc(CCOCCC(=O)N(CCNCCc5ccc(O)c6c5OCC(=O)N6)CCC(F)(F)F)c4F)CC3)C2)cs1` [Example 20, 3-(2-Fluoro-3-((4-(2-isopropylthiazole-4-carbonyl)-1-oxa-4,9-diazaspiro[5.5]undecan-9-yl)methyl)phenethoxy)-N-(2-(2-(5-hydroxy-3-oxo-3,4-dihydro-2H-benzo[b][1,4]oxazin-8-yl)ethylamino)ethyl)-N-(3,3,3-trifluoropropyl)propanamide ditrifluoroacetate], for which, in experiment [1], the EC50 is 79.4 nM and the “β2 Intrinsic Activity” value was 1.1. The IC50 in experiment [2] was 0.2 nM.
For `Cc1ccccc1CN(CCNCCc1ccc(O)c2c1OCC(=O)N2)C(=O)CCOCCc1cccc(CN2CCC3(CC2)CN(C(=O)c2csc(C(C)C)n2)CCO3)c1F` [Example 21, 3-(2-Fluoro-3-((4-(2-isopropylthiazole-4-carbonyl)-1-oxa-4,9-diazaspiro[5.5]undecan-9-yl)methyl)phenethoxy)-N-(2-(2-(5-hydroxy-3-oxo-3,4-dihydro-2H-benzo[1)][1,4]oxazin-8-yl)ethylamino)ethyl)-N-(2-methylbenzyl)propanamide ditrifluoroacetate], in experiment [1], the EC50 is 63.1 nM and the “β2 Intrinsic Activity” value came out at 1.1. In experiment [2], this compound had an IC50 of 0.316 nM.
Take `Cc1ccc(CN(CCNCCc2ccc(O)c3c2OCC(=O)N3)C(=O)CCOCCc2cccc(CN3CCC4(CC3)CN(C(=O)c3csc(C(C)C)n3)CCO4)c2F)cc1` [Example 22, 3-(2-Fluoro-3-(4-(2-isopropylthiazole-4-carbonyl)-1-oxa-4,9-diazaspiro[5.5]undecan-9-yl)methyl)phenethoxy)-N-(2-(2-(5-hydroxy-3-oxo-3,4-dihydro-2H-benzo[b][1,4]oxazin-8-yl)ethylamino)ethyl)-N-(4-methylbenzyl)propanamide ditrifluoroacetate]: in experiment [1], the EC50 is 79.4 nM and the “β2 Intrinsic Activity” value worked out at 1.2. Besides, in experiment [2], the IC50 is 0.251 nM.
